Patent US20050249697A1, “Compositions and methods for the inhibition of bone growth and resorption” (priority 2003, published 2005)
Where two headings read alike, the source gives them in different places.

Assays:
[1] = cited from earlier work
[2] = cited from earlier work; remark: listed apart in the source
[3] = tested on: Long Bone Critical Size Defect; assay: Long bone critical size defect model: bone formation and resorption; format: in vivo, Sprague Dawley retired breeder male rats; conditions: implant of polymer microspheres containing ≧0.5 g salicylic acid/cm^3 in a femur
Text: Nineteen (19) Sprague Dawley retired breeder male rats were employed in this experiment. In each animal, a 5 mm mid-shaft defect was created using an oscillating saw. The limbs were then stabilized using a custom 4-hole polymer plate and screws. In two groups of 6 rats each, the defects were filled with either the homopolymer or the copolymer. The remaining 7 rats had their defects filled with a collagen sponge to serve as controls. An equal number of animals from each group was sacrificed at 4 and 8 weeks post surgery. The only exception was that four control rats were used in the 8-week group. The defect sites were radiographed using a Hewlett-Packard Faxitron model 43804 and high resolution mammography film every 2 weeks until sacrifice. At term, the limbs were collected and prepared for non-decalcified histology. Mid-sagittal ground sections were prepared and stained using Sanderson's Rapid Bone Stain and Stevenel's Blue. New bone formed between inner-most fixation screws was measured on 2 slides per animal and averaged. Bone resorption, or loss, was also measured by approximating the original contours of the cortices, and measuring the difference in area relative to the remaining bone.

[4] = cited from earlier work; for Plasma Levels: Clinical Use, Anti-Inflammatory Effectiveness; for Plasma half-life: in vivo
[5] = cited from earlier work; remark: listed apart in the source
[6] = in vivo; cited from earlier work
[7] = Plasma diflunisal in rats after subcutaneous polydiflunisal microspheres or oral diflunisal; format: in vivo; conditions: single oral dose
Text: Processes for making nanoparticle formulations are also known in the art, and need not be fully described in this patent. The surface eroding property of polymers such as polydiflunisal makes for solid, non-porous particles, e.g. nano- and micro-spheres, useful for sustained drug delivery, and their release duration may be controlled by varying particle diameter, e.g. larger microparticles biodegrade more slowly than smaller ones. Nano- and microparticles for pharmaceutical formulations may be designed to deliver an agent(s) or compound(s) incorporated into the monomer, oligomer or polymer backbone and optionally an agent(s) blended, appended to, or dispersed in the polymer. […] Microparticle formulations of about 1, 2, 5, 7.5, 10, 25, 50 to about 10, 15, 30, 50, 75, 100, 250 μm are suitable for use in a pharmaceutical, veterinary or other type of formulations. Similarly, nanoparticle formulations may be administered for various applications, having a particle size about 1, 2, 5, 10 to about 15, 20, 30, 50, 100, 250, 500 nm, or various ranges between any two of these values. […]

For O=C(O)CCCCCCCCC(=O)O [Sebacic Acid], the “Rat Oral LD50” value ([1]; oral) is given as 14,470 mg/kg.
In the case of O=C(O)c1ccccc1O [Salicylic Acid], the “Water Solubility” value [2] is given as “High”, the “effect of local delivery at site of bone defect or injury” value [3] is given as “prevents new bone growth, degradation and resorption” and the “Plasma Levels” value [4] is given as 150 to 300 µg/mL. The “Plasma half-life” value [4] was 2.5 h.
For CN1CC[C@]23c4c5ccc(O)c4O[C@H]2[C@@H](O)C=C[C@H]3[C@H]1C5 [morphine], the pain relief ([5]; 1 mg injected into chronically-inflamed gum tissue) is given as “profound pain relief” and the pain relief ([5]; intra-articular injection of 3 mg in RA patients) is given as “pain relief similar to that of 4 mg dexamethasone”.
In the case of O=C(O)c1cc(-c2ccc(F)cc2F)ccc1O [Diflunisal, 5-(2,4-difluoro-phenyl) salicylic acid], the “Water Solubility” value [2] is listed as “Very Low”, the LD50 [6] is listed as 439 mg/kg and the “Plasma Levels” value [4] is listed as 50 to 190 µg/mL. The “No. Metabolites” value ([4]; Metabolism) was 2, the “Where Metabolized” value ([4]; Metabolism) was “Liver, Intestine” and the “Plasma half-life” value [4] was 8 to 12 h. For the same compound, the “plasma drug level after dosing” value [7] was “declined rapidly”.
In the case of O=C(O)CCC(=O)O [Succinic Acid], the “Rat Oral LD50” value ([1]; in vivo, po) is given as 8,530 mg/kg.
